Bounds are passed on as bounds.

The assay has as its system HCT116 MTAP-deleted cells. Nature of the assay: Cell viability assay (CellTiter-Glo, 7 days), HCT116 MTAP-deleted. The settings on record: Homo sapiens, HCT-116, 168 h. (In general: In ATP-based viability assays light output follows the ATP content of the culture.)
As usually defined, the CC50 is the concentration at which the toxic effect on the cells reaches its halfway point. On to `Nc1nc2ccc(C(=O)N(Cc3nc4ccc(Cl)cc4[nH]3)N3CCCC3=O)cc2c2ccccc12` [Example 124, 6-amino-N-((6-chloro-1H-benzo[d]imidazol-2-yl)methyl)-N-(2-oxopyrrolidin-1-yl)phenanthridine-2-carboxamide], for which the CC50 was 100 to 1000 nM.
In turn, `CC(=O)N(C)N(Cc1ccc(-c2cnc(C(F)(F)F)s2)cc1F)C(=O)c1ccc2nc(N)c3cnn(C)c3c2c1` [Example 217, N′-acetyl-4-amino-N-(2-fluoro-4-(2-(trifluoromethyl)thiazol-5-yl)benzyl)-N′,1-dimethyl-1H-pyrazolo[4,3-c]quinoline-8-carbohydrazide] gave a CC50 of under 100 nM.
`CC(=O)N(C)N(Cc1ccc(-c2ccc(C(F)(F)F)cn2)cc1F)C(=O)c1ccc2nc(N)c3cnn(C)c3c2c1` [Example 224, N′-acetyl-4-amino-N-(2-fluoro-4-(5-(trifluoromethyl)pyridin-2-yl)benzyl)-N′,1-dimethyl-1H-pyrazolo[4,3-c]quinoline-8-carbohydrazide] yielded a CC50 of under 100 nM.
Take `CC(=O)N(C)N(Cc1ccc(-c2cc(C(F)(F)F)ccn2)cc1F)C(=O)c1ccc2nc(N)c3cnn(C)c3c2c1` [Example 225, N′-acetyl-4-amino-N-(2-fluoro-4-(4-(trifluoromethyl)pyridin-2-yl)benzyl)-N′,1-dimethyl-1H-pyrazolo[4,3-c]quinoline-8-carbohydrazide]: the CC50 was under 100 nM.
`CC(=O)N(C)N(Cc1ccc(-c2cnoc2)cc1F)C(=O)c1ccc2nc(N)c3cnn(C)c3c2c1` [Example 227, N′-acetyl-4-amino-N-(2-fluoro-4-(isoxazol-4-yl)benzyl)-N′,1-dimethyl-1H-pyrazolo[4,3-c]quinoline-8-carbohydrazide] returned a CC50 of under 100 nM.
To `CC(=O)N(C)N(Cc1ccc(-c2ccc(C(F)(F)F)s2)cc1F)C(=O)c1ccc2nc(N)c3cnn(C)c3c2c1` [Example 237, N′-acetyl-4-amino-N-(2-fluoro-4-(5-(trifluoromethyl)thiophen-2-yl)benzyl)-N′,1-dimethyl-1H-pyrazolo[4,3-c]quinoline-8-carbohydrazide] belongs under 100 nM; to `CN(C(=O)C1CC1)N(Cc1ccc(-c2ccsn2)cc1F)C(=O)c1ccc2nc(N)c3cnn(C)c3c2c1` [Example 239, 4-amino-N′-(cyclopropanecarbonyl)-N-(2-fluoro-4-(isothiazol-3-yl)benzyl)-N′,1-dimethyl-1H-pyrazolo[4,3-c]quinoline-8-carbohydrazide], under 100 nM.
In turn, `CC(=O)N(C)N(Cc1ccc(-c2cccnc2)cc1F)C(=O)c1ccc2nc(N)c3cnn(C)c3c2c1` [Example 241, N′-acetyl-4-amino-N-(2-fluoro-4-(pyridin-3-yl)benzyl)-N′,1-dimethyl-1H-pyrazolo[4,3-c]quinoline-8-carbohydrazide] showed a CC50 of under 100 nM.
Compound `CC(=O)N(C)N(Cc1ccc(-c2cncs2)cc1F)C(=O)c1ccc2nc(N)c3cnn(C)c3c2c1` [Example 245, N′-acetyl-4-amino-N-(2-fluoro-4-(thiazol-5-yl)benzyl)-N′,1-dimethyl-1H-pyrazolo[4,3-c]quinoline-8-carbohydrazide] came in with a CC50 of under 100 nM.
In the case of `CC(=O)N(C)N(Cc1ccc(-c2cnn(C3(C)CC3)c2)cc1F)C(=O)c1ccc2nc(N)c3cnn(C)c3c2c1` [Example 247, N′-acetyl-4-amino-N-(2-fluoro-4-(1-(1-methylcyclopropyl)-1H-pyrazol-4-yl)benzyl)-N′,1-dimethyl-1H-pyrazolo[4,3-c]quinoline-8-carbohydrazide], the CC50 was under 100 nM.
`CC(=O)N(C)N(Cc1ccc(-c2cnn(C(F)(F)F)c2)cc1C#N)C(=O)c1ccc2nc(N)c3cnn(C)c3c2c1` [Example 251, N′-acetyl-4-amino-N-(2-cyano-4-(1-(trifluoromethyl)-1H-pyrazol-4-yl)benzyl)-N′,1-dimethyl-1H-pyrazolo[4,3-c]quinoline-8-carbohydrazide] showed a 50% cytotoxic concentration (CC50) of under 100 nM.
As to `CC(=O)N(C)N(Cc1ccc(-c2cnn(C(F)F)c2)cc1C#N)C(=O)c1ccc2nc(N)c3cnn(C)c3c2c1` [Example 252, N′-acetyl-4-amino-N-(2-cyano-4-(1-(difluoromethyl)-1H-pyrazol-4-yl)benzyl)-N′,1-dimethyl-1H-pyrazolo[4,3-c]quinoline-8-carbohydrazide], the CC50 is under 100 nM.
`[2H]C([2H])([2H])N(C(=O)C1CC1)N(Cc1ncc(C(F)(F)F)cc1F)C(=O)c1ccc2nc(N)c3cnn(C)c3c2c1` [Example 268, 4-amino-N′-(cyclopropanecarbonyl)-N-((3-fluoro-5-(trifluoromethyl)pyridin-2-yl)methyl)-1-methyl-N′-(methyl-d3)-1H-pyrazolo[4,3-c]quinoline-8-carbohydrazide] came in with a CC50 of under 100 nM.
On to `[2H]C([2H])([2H])N(C(C)=O)N(Cc1ccc(C(F)(F)F)cc1F)C(=O)c1ccc2nc(N)c3cnn(C)c3c2c1` [Example 269, N′-acetyl-4-amino-N-(2-fluoro-4-(trifluoromethyl)benzyl)-1-methyl-N′-(methyl-d3)-1H-pyrazolo[4,3-c]quinoline-8-carbohydrazide], for which the CC50 is under 100 nM.
For the compound `CC(=O)N(C)N(Cc1cccc2ccoc12)C(=O)c1ccc2nc(N)c3cnn(C)c3c2c1` [Example 273, N′-acetyl-4-amino-N-(benzofuran-7-ylmethyl)-N′,1-dimethyl-1H-pyrazolo[4,3-c]quinoline-8-carbohydrazide], the CC50 was under 100 nM.
`CN(C(=O)C1CC1)N(Cc1ccc2c(c1)OC(F)(F)O2)C(=O)c1cc2c(cc1F)nc(N)c1cnn(C)c12` [Example 282, 4-amino-N′-(cyclopropanecarbonyl)-N-((2,2-difluorobenzo[d][1,3]dioxol-5-yl)methyl)-7-fluoro-N′,1-dimethyl-1H-pyrazolo[4,3-c]quinoline-8-carbohydrazide] displayed a CC50 of under 100 nM.
To `Cn1ncc2c(N)nc3cc(F)c(C(=O)N(Cc4ccc(C(F)(F)F)cn4)N4CCOC5(CC5)C4)cc3c21` [Example 284, 4-amino-7-fluoro-1-methyl-N-(4-oxa-7-azaspiro[2.5]octan-7-yl)-N-((5-(trifluoromethyl)pyridin-2-yl)methyl)-1H-pyrazolo[4,3-c]quinoline-8-carboxamide] belongs under 100 nM; to `Cn1ncc2c(N)nc3ccc(C(=O)N(Cc4ccc(C(F)(F)F)cn4)N4CCOC5(CC5)C4)cc3c21` [Example 285, 4-amino-1-methyl-N-(4-oxa-7-azaspiro[2.5]octan-7-yl)-N-((5-(trifluoromethyl)pyridin-2-yl)methyl)-1H-pyrazolo[4,3-c]quinoline-8-carboxamide], 100 to 1000 nM.
With `CN(C(=O)C1CC1)N(Cc1ccc(OC(F)F)cn1)C(=O)c1cc2c(cc1F)nc(N)c1cnn(C)c12` [Example 290, 4-amino-N′-(cyclopropanecarbonyl)-N-((5-(difluoromethoxy)pyridin-2-yl)methyl)-7-fluoro-N′,1-dimethyl-1H-pyrazolo[4,3-c]quinoline-8-carbohydrazide] the figure was under 100 nM; with `CN(C(=O)C1CC1)N(Cc1ccc(OC(F)F)cn1)C(=O)c1ccc2nc(N)c3cnn(C)c3c2c1` [Example 291, 4-amino-N′-(cyclopropanecarbonyl)-N-((5-(difluoromethoxy)pyridin-2-yl)methyl)-N′,1-dimethyl-1H-pyrazolo[4,3-c]quinoline-8-carbohydrazide], under 100 nM.

(Values after patent US20240254118A1, “PRMT5 INHIBITORS AND USES THEREOF” (Gilead Sciences, Inc., priority 2022, published 2024).)
